Experimental data as given in US20240115546A1, “AGENT FOR PREVENTING OR AMELIORATING PRURITUS” (KAO CORPORATION, priority 2021, published 2024).

Key:
[1] = tested on: AEW model mice (C57BL/6J); experiment: Scratching behavior in AEW model mice given C3a receptor antagonist; type: in vivo, mouse; conditions: 200 μL subcutaneous, Compound 1 0.5 mg/mL, Compound 2 0.05 mg/mL, once daily for 8 days; measured for 3 hours after last administration; vs solvent alone; FIG. 8
Description: The animals used were male C57BL/6J mice.
Preparation of AEW model: The back of the neck was shaved, and absorbent cotton soaked with a 1:1 (v/v) mixture of acetone and diethyl ether was applied and allowed to stand for 15 seconds. Immediately thereafter, absorbent cotton soaked with water was applied for 30 seconds. This treatment was repeated twice/day (morning and evening) for 7 days.
(§1) Compound 1 or Compound 2, whose C3a receptor antagonism was confirmed in Example 4 above, was used as a C3a receptor antagonist. Compound 1 or Compound 2 was dissolved in saline containing 20% polyethylene glycol 400, of which 200 μL was administered subcutaneously to the back of the neck. The control group was administered with the same amount of only the above solvent. The concentration of the C3a receptor antagonist solution was set at 0.5 mg/mL for Compound 1 and 0.05 mg/mL for Compound 2. Sample administration started after the first AEW treatment and was performed at a frequency of once daily for 8 days.
Sixteen hours after the last AEW treatment, the scratching behavior was measured for 3 hours after the last administration of the sample. MicroAct (Neuroscience) was used to measure the scratching behavior.

[2] = tested on: AD model mice (NC/Nga, mite allergen-induced); experiment: Scratching behavior in AD model mice given C3a receptor antagonist; type: in vivo, mouse; conditions: 200 μL subcutaneous, Compound 1 0.5 mg/mL, Compound 2 0.05 mg/mL, three times a week; measured for 3 hours after last administration; vs solvent alone; FIG. 7
Procedure: Seven-week-old female NC/Nga mice were used.
Preparation of AD model mice: The back of the neck was shaved, and 100 mg of an ointment containing mite allergen: Biostir AD (Biostir Inc.) was applied to the back of the neck and auricular region under isoflurane anesthesia for initial sensitization. Four days after the first application of the ointment containing mite allergen, 150 μL of 4% (w/v) SDS solution and 100 mg of ointment containing mite allergen were applied to the back of the neck and auricular region under isoflurane anesthesia. Thereafter, the same procedure was performed four times at a frequency of once every 3 to 4 days to induce AD-like dermatitis.
as §1, with “Sample administration started after the first AEW treatment and was performed at a frequency of once daily for 8 days.” left out
Four days after the last application of the ointment containing mite allergen, the scratching behavior was measured for 3 hours after the last administration of the sample. […]

[3] = target: T1, C3a receptor (Homo sapiens, UniProt Q16581); experiment: Ca2+-flux assay for C3a receptor antagonism in transfected HEK293 cells; type: cell-based; conditions: antagonist 10 nM, mouse TLQP-21 1 μM; HEK293 transfected with C3a receptor and GNA16; Fluo-4; vs control; FIG. 6
T1 sequence (Q16581 1-482): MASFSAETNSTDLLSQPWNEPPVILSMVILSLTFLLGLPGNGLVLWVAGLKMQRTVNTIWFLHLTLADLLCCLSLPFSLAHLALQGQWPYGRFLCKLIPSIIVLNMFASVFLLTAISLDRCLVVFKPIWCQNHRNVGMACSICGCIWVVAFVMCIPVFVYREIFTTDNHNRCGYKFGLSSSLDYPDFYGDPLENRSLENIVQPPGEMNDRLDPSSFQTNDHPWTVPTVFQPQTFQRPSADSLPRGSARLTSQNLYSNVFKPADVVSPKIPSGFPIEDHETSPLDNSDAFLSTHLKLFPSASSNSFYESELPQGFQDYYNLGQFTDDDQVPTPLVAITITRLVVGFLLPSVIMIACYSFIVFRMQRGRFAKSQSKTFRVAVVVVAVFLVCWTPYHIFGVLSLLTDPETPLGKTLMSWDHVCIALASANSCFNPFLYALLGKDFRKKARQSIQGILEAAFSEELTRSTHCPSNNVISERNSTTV
Procedure: In the following evaluation, Compound 1 and Compound 2 were dissolved in DMSO and diluted with HBSS as appropriate.
Human Embryonic Kidney cells 293 (HEK293) were used, transfected with the expression vectors necessary for evaluation according to the following.
A transfection solution was prepared by sequentially adding C3a receptor expression vector, GNA16 expression vector, and PEI-MAX (PolyScience) solution to serum-free DMEM medium, mixing well, and then allowing it to stand at room temperature for 20 minutes. […]
The cells for evaluating C3a receptor response described above were seeded in a 96-well Black Polystyrene Microplate (Thermo fisher scientific) precoated with Poly-L-Ornithine Solution (FUJIFILM Wako Pure Chemical). […] After 15 minutes, a mouse TLQP-21 solution was added for C3a receptor stimulation, and the Ca^2+ influx associated with the stimulation was measured over time as intracellular fluorescence intensity (Ex: 494 nm, Em: 525 nm). The value obtained by subtracting the measured value when HBSS was added instead of mouse TLQP-21 solution (blank) was used as the measured value. The C3a receptor antagonist solution and mouse TLQP-21 solution were added after adjusting their concentrations by appropriately diluting them so that their final concentrations when measuring fluorescence intensity were 10 nM and 1 μM, respectively. […]

| SMILES | Scratching behavior [1] | Scratching behavior [2] | Fluorescence intensity due to C3a receptor stimulation by TLQP-21 (Ca2+ influx, integrated over 3 min) [3] |
| --- | --- | --- | --- |
| N=C(N)NCCC[C@H](NC(=O)c1ccc(C(c2ccccc2)c2ccccc2)s1)C(=O)O [Compound 1, L-arginine, N2-[[5-(diphenylmethyl)-2-thienyl]carbonyl]] | significant decrease | significant decrease | greatly suppressed |
| Cc1cc(C(c2ccc(Cl)cc2)c2ccc(Cl)cc2)sc1C(=O)N[C@@H](CCCNC(=N)N)C(=O)O [Compound 2, L-arginine, N2-[[5-[bis(4-chlorophenyl)methyl]-3-methyl-2-thienyl]carbonyl]] | significant decrease | significant decrease | greatly suppressed |
